The values that follow come from the supplement of paper PMC10307832.

What all share (test): relative viability (nuclei count vs DMSO), 5 days (fraction); higher = more cells survive
Compound in the assay “Bleomycin + Vorinostat”: CC1=C(N=C(N=C1N)[C@H](CC(=O)N)NC[C@@H](C(=O)N)N)C(=O)N[C@@H]([C@H](C2=CN=CN2)OC3C(C(C(C(O3)CO)O)O)OC4C(C(C(C(O4)CO)O)OC(=O)N)O)C(=O)N[C@H](C)[C@H]([C@H](C)C(=O)N[C@@H]([C@@H](C)O)C(=O)NCCC5=NC(=CS5)C6=NC(=CS6)C(=O)NCCC[S+](C)C)O [Bleomycin] + O=C(CCCCCCC(=O)Nc1ccccc1)NO [Vorinostat] (partner 1 µM)
Particulars: main component drawn. The method in brief: (§1)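 Each reported value is a median over duplicate plates. It expresses relative viability: treated-well nuclei count divided by vehicle-well nuclei count. Lung cancer cell lines in 1536-well plates were dosed by pin tool a day after seeding, alone with one drug or with a fixed anchor-drug dose plus five library-drug doses (not always all listed) in √10 steps, and nuclei were counted after 5 days.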

Compound in the assay “Etoposide + Dasatinib”: COc1cc([C@@H]2c3cc4c(cc3[C@@H](O[C@@H]3O[C@@H]5CO[C@@H](C)O[C@H]5[C@H](O)[C@H]3O)[C@H]3COC(=O)[C@H]23)OCO4)cc(OC)c1O [Etoposide] + Cc1nc(Nc2ncc(C(=O)Nc3c(C)cccc3Cl)s2)cc(N2CCN(CCO)CC2)n1 [Dasatinib] (partner 0.075 µM)
The method in brief:
as §1

Compound in the assay “Etoposide + Decitabine”: COc1cc([C@@H]2c3cc4c(cc3[C@@H](O[C@@H]3O[C@@H]5CO[C@@H](C)O[C@H]5[C@H](O)[C@H]3O)[C@H]3COC(=O)[C@H]23)OCO4)cc(OC)c1O [Etoposide] + Nc1ncn([C@H]2C[C@H](O)[C@@H](CO)O2)c(=O)n1 [Decitabine] (partner 2 µM)
The gist of the method:
as §1

Compound in the assay “Etoposide + Vorinostat”: COc1cc([C@@H]2c3cc4c(cc3[C@@H](O[C@@H]3O[C@@H]5CO[C@@H](C)O[C@H]5[C@H](O)[C@H]3O)[C@H]3COC(=O)[C@H]23)OCO4)cc(OC)c1O [Etoposide] + O=C(CCCCCCC(=O)Nc1ccccc1)NO [Vorinostat] (partner 1 µM)
The gist of the method:
as §1

Turning to NCI-H1993, the relative viability in the assay with Bleomycin + Vorinostat (first compound 0.01 µM) turned out to be 0.669; with Bleomycin + Vorinostat (first compound 0.03162 µM) it was 0.585; with Bleomycin + Vorinostat (first compound 0.1 µM) it was 0.864; with Bleomycin + Vorinostat (first compound 0.3162 µM), 0.303; with Bleomycin + Vorinostat (first compound 1 µM), 0.386; in the assay with Etoposide + Dasatinib (first compound 0.01 µM), 0.619. The relative viability was determined as 0.712 with Etoposide + Dasatinib (first compound 0.03162 µM); 0.478 with Etoposide + Dasatinib (first compound 0.1 µM); 0.546 with Etoposide + Dasatinib (first compound 0.3162 µM); 0.376 with Etoposide + Dasatinib (first compound 1 µM); 0.609 in the assay with Etoposide + Decitabine (first compound 0.03162 µM); 0.482 in the assay with Etoposide + Decitabine (first compound 0.1 µM). Further, the relative viability with Etoposide + Decitabine (first compound 0.3162 µM) was 0.599; with Etoposide + Decitabine (first compound 1 µM), 0.461; with Etoposide + Vorinostat (first compound 0.03162 µM), 0.683; with Etoposide + Vorinostat (first compound 0.1 µM), 0.507; with Etoposide + Vorinostat (first compound 0.3162 µM) it was 0.718; with Etoposide + Vorinostat (first compound 1 µM), 0.284.
Take NCI-H1734: the relative viability in the assay with Bleomycin + Vorinostat (first compound 0.01 µM) is 0.612; in the assay with Bleomycin + Vorinostat (first compound 0.03162 µM), 0.623; with Bleomycin + Vorinostat (first compound 0.1 µM) it was 0.472; with Bleomycin + Vorinostat (first compound 0.3162 µM), 0.231; with Bleomycin + Vorinostat (first compound 1 µM), 0.15; with Etoposide + Dasatinib (first compound 0.01 µM), 0.415. Besides, the relative viability with Etoposide + Dasatinib (first compound 0.03162 µM) amounted to 0.449; with Etoposide + Dasatinib (first compound 0.1 µM) it was 0.312; with Etoposide + Dasatinib (first compound 0.3162 µM), 0.436; in the assay with Etoposide + Dasatinib (first compound 1 µM), 0.21; with Etoposide + Decitabine (first compound 0.01 µM), 0.517; in the assay with Etoposide + Decitabine (first compound 0.03162 µM), 0.513. The relative viability turned out to be 0.454 with Etoposide + Decitabine (first compound 0.1 µM); 0.379 in the assay with Etoposide + Decitabine (first compound 0.3162 µM); 0.314 in the assay with Etoposide + Decitabine (first compound 1 µM); 0.701 with Etoposide + Vorinostat (first compound 0.01 µM); 0.929 with Etoposide + Vorinostat (first compound 0.03162 µM); 0.514 with Etoposide + Vorinostat (first compound 0.1 µM). The relative viability amounted to 0.458 with Etoposide + Vorinostat (first compound 0.3162 µM) and 0.219 in the assay with Etoposide + Vorinostat (first compound 1 µM).
HOP-62: the relative viability was determined as 0.277 in the assay with Bleomycin + Vorinostat (first compound 0.01 µM); 0.277 with Bleomycin + Vorinostat (first compound 0.03162 µM); 0.179 in the assay with Bleomycin + Vorinostat (first compound 0.1 µM); 0.102 with Bleomycin + Vorinostat (first compound 0.3162 µM); 0.0753 in the assay with Bleomycin + Vorinostat (first compound 1 µM); 0.584 with Etoposide + Dasatinib (first compound 0.01 µM). In addition, the relative viability was 0.676 in the assay with Etoposide + Dasatinib (first compound 0.03162 µM); 0.492 in the assay with Etoposide + Dasatinib (first compound 0.1 µM); 0.621 with Etoposide + Dasatinib (first compound 0.3162 µM); 0.363 with Etoposide + Dasatinib (first compound 1 µM); 0.227 in the assay with Etoposide + Decitabine (first compound 0.01 µM); 0.199 with Etoposide + Decitabine (first compound 0.03162 µM). Also, the relative viability with Etoposide + Decitabine (first compound 0.1 µM) was 0.212; with Etoposide + Decitabine (first compound 0.3162 µM), 0.207; with Etoposide + Decitabine (first compound 1 µM) it was 0.179; with Etoposide + Vorinostat (first compound 0.01 µM) it was 0.631; with Etoposide + Vorinostat (first compound 0.03162 µM) it was 0.711; with Etoposide + Vorinostat (first compound 0.1 µM), 0.381. Moreover, the relative viability in the assay with Etoposide + Vorinostat (first compound 0.3162 µM) was determined as 0.267; in the assay with Etoposide + Vorinostat (first compound 1 µM) it was 0.115.
LOU-NH91: the relative viability was found to be 0.718 with Bleomycin + Vorinostat (first compound 0.01 µM); 0.544 with Bleomycin + Vorinostat (first compound 0.03162 µM); 0.508 in the assay with Bleomycin + Vorinostat (first compound 0.1 µM); 0.387 with Bleomycin + Vorinostat (first compound 0.3162 µM); 0.345 with Bleomycin + Vorinostat (first compound 1 µM); 0.579 with Etoposide + Dasatinib (first compound 0.01 µM). For the same cell line, the relative viability in the assay with Etoposide + Dasatinib (first compound 0.03162 µM) was found to be 0.601; with Etoposide + Dasatinib (first compound 0.1 µM), 0.492; in the assay with Etoposide + Dasatinib (first compound 0.3162 µM) it was 0.566; in the assay with Etoposide + Dasatinib (first compound 1 µM) it was 0.395; with Etoposide + Decitabine (first compound 0.01 µM) it was 0.783; with Etoposide + Decitabine (first compound 0.03162 µM), 0.876. Further, the relative viability is 0.778 with Etoposide + Decitabine (first compound 0.1 µM); 0.766 in the assay with Etoposide + Decitabine (first compound 0.3162 µM); 0.54 in the assay with Etoposide + Decitabine (first compound 1 µM); 0.88 with Etoposide + Vorinostat (first compound 0.01 µM); 0.982 with Etoposide + Vorinostat (first compound 0.03162 µM); 0.831 in the assay with Etoposide + Vorinostat (first compound 0.1 µM). The relative viability in the assay with Etoposide + Vorinostat (first compound 0.3162 µM) worked out at 0.659; with Etoposide + Vorinostat (first compound 1 µM), 0.387.
